{"source": "patent US7217555B1", "about": "“Cloning and characterisation of novel mammalian peptidase” (Janssen Pharmaceutica N.V., priority 1998, dated 2007)", "format_in_all_cases": "biochemical", "key": {"[1]": {"molecular_target": "T1, NAALAD-ase II (Homo sapiens, UniProt Q9Y3Q0)", "T1 construct": "expressed in transfected cells; host or cells: COS cells, transient, pcDNA-3", "assay": "[3H]-NAAG hydrolysis assay, membranes of COS cells transiently transfected with NAALAD-ase II", "experimental": "(§1) FIG. 9: is an illustration of time course of NAALAD-ase activity. Activity of membrane preparations from COS cells transiently transfected with either NAALAD-ase I (A) or […]. Hydrolysis of 500 nM 3[H]-NAAG in 1 mM ZnCl2, 50 mM Tris.HCL (pH 7.4) was assayed for 0, 15, 30 and 60 min at 37° C. in the presence (open circles) or absence (closed circles) of 30 μM quisqualate. Reactions were terminated with 250 mM ice cold sodium phosphate and released 3[H]-glutamate measured. (C) Inhibition of NAALAD-ase I (open circles) and NAALAD-ase II (closed circles) activity by increasing concentrations of quisqualic acid expressed as % of control (activity in the absence of any inhibitor).\n(§2) COS cells were maintained in complete medium (DMEM supplemented with 10% foetal calf serum, 1× non-essential amino acids and a 1× strptamycin/penicillin/glutamine mix). Prior to transfection cells were washed twice with PBS, Ca^+2/Mg^2+ free pre-warmed to 37° C. and dissociated from culture plates by addition of a trypsin/EDTA solution for 1–2 minutes. Cells were collected after a 10 min spin at 1600 rpm and re-suspended in 1–2 ml of equilibrated (5% CO2/95% air) pre-warmed medium. The cell titre was determined in a Coulter counter and cells were seeded in 6 well plates at a density of 15000 cells/cm^2 and allowed to reach approximately 80% confluence (˜2 days growth). For each transfection 6 μl FuGENE6 (Boehringer Mannheim, Germany) was added to 96 μl serum free medium and incubated for 5 minutes at 20° C. This preparation was added to a second tube containing 1 μg of NAALAD-ase/pcDNA3 DNA, mixed gently and allowed to stand for 15 minutes at room temperature. The DNA/FuGENE6/serum-free medium mix was pipetted into a well containing 2 ml fresh complete medium. […]\n(§3) NAALAD-ase activity was quantified by determination of the extent of hydrolysis of N-acetyl-L-aspartyl-L-(3,4-[^3H])-glutamate as previously described (Blakeley et al., 1988). […] Assay eluates were diluated with scintillation cocktail (16 ml Ultima Gold XR) and counted in a scintillation counter (Packard). […]"}, "[2]": {"molecular_target": "T2, NAALAD-ase L (Homo sapiens, UniProt Q9UQQ1)", "T2 construct": "To construct a full length NAALAD-ase L clone, two new primer sets were designed; expressed in transfected cells; host or cells: COS cells, transient, pcDNA-3", "T2 sequence (Q9UQQ1 1-740 S100X/R686S/T687H/S689L/V690R/V691S/T692H/F693I)": "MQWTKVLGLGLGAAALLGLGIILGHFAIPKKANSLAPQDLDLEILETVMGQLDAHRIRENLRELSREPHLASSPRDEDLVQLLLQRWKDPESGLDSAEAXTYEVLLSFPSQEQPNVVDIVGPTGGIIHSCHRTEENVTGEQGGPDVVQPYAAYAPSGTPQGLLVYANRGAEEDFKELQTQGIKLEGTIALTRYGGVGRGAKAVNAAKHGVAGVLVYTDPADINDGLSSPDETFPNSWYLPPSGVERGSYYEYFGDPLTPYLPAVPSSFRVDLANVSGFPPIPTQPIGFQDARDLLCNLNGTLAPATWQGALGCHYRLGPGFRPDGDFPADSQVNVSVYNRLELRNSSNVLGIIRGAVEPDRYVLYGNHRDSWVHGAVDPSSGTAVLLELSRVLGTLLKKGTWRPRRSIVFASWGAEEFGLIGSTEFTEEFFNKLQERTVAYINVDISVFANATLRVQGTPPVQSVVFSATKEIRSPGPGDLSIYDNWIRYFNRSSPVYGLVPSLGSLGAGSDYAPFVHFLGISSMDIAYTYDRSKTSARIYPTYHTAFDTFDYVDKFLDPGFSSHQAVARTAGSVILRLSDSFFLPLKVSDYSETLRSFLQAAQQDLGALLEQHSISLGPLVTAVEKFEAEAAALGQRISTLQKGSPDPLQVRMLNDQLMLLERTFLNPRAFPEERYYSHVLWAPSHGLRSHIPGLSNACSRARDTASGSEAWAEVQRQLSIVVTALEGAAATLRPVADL", "assay": "[3H]-NAAG hydrolysis assay, COS cells transfected with NAALAD-ase L", "conditions": "recombinant preparation from COS cells", "experimental": "as §1\nCOS cells were maintained in complete medium (DMEM supplemented with 10% foetal calf serum, 1× non-essential amino acids and a 1× strptamycin/penicillin/glutamine mix). […] The cell titre was determined in a Coulter counter and cells were seeded in 6 well plates at a density of 15000 cells/cm^2 and allowed to reach approximately 80% confluence (˜2 days growth). […]\nas §3"}, "[3]": {"molecular_target": "T3, LNCaP membrane NAALAD-ase (Homo sapiens, UniProt Q04609)", "T3 construct": "10 μg of protein from LNCaP cell membrane preparations was used per reaction; endogenous in cells; host or cells: LNCaP cell membranes", "assay": "Scintillation proximity assay (SPA) of [3H]-NAAG hydrolysis, LNCaP cell membrane preparations", "experimental": "(§4) FIG. 10: is an illustration of NAALAD-ase activity determinations using SPA beads. (A) 10 μg of protein from LNCaP cell membrane preparations was used per reaction to develop a high throughput assay NAALAD-ase assay. Hydrolysis of 40 nM 3[H]-NAAG in 1 mM ZnCl2, 50 mM Tris-HCL (pH 7.4) was measured at 25° C. for different incubation times in a 100 μl reaction volume. Reactions were terminated by the addition of 100 μl glycine buffer (pH 3.0) and naked YS-SPA beads. (C) Inhibition of NAALAD-ase I (open circles) or LNCaP membrane NAALAD-ase (closed circles) activity by increasing concentrations of quisqualic acid expressed as a % of control (activity in the absence of any inhibitor).\n(§5) NAALAD-ase assays were performed at 37° C. or 25° C. for 10 min in the presence of 50 mM Tris-HCl, pH 7.4, containing 1 mM ZnCl2. Each assay was performed in a 100 μl reaction volume containing 40 nM 3[H]-NAAG, 50 mM Tris-HCl (pH 7.4), 1 mM Zn^2+C2 and either 10 μg of recombinant NAALAD-ase I or LNCaP cell membrane preparations. Reactions were terminated by addition of 100 μl glycine buffer (pH 3.0) and 1 mg naked YS-SPA beads. After allowing the beds to settle for 30 min, the assay mixture was counted in a microtiterplate scintillation counter. […]"}, "[4]": {"molecular_target": "T4, NAALAD-ase I (Homo sapiens, UniProt Q04609, Y75H)", "T4 sequence (Q04609 whole entry Y75H)": "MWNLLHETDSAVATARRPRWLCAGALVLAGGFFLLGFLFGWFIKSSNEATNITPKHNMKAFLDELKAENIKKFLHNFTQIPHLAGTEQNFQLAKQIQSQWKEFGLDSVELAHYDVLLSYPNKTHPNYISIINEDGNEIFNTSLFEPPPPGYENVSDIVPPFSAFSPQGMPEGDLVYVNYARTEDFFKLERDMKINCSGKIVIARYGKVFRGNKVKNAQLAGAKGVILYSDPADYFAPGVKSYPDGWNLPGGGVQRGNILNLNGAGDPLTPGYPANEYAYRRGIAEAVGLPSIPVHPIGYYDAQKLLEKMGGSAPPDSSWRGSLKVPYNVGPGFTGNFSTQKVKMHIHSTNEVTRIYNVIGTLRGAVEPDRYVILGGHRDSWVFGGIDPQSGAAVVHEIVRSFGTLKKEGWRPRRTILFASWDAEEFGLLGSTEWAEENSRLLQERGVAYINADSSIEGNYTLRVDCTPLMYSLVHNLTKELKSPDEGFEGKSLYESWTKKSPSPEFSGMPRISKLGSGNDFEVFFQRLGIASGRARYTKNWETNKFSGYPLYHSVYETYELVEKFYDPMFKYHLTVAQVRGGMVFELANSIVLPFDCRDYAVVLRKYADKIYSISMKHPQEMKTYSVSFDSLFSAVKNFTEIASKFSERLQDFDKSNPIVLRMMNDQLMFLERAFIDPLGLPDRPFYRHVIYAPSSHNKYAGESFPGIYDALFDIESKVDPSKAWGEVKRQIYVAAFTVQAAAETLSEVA", "assay": "Scintillation proximity assay (SPA) of [3H]-NAAG hydrolysis, recombinant NAALAD-ase I membrane preparations", "parameters": "expressed in transfected cells", "experimental": "as §4, §5"}, "[5]": {"molecular_target": "T4, NAALAD-ase I", "assay": "[3H]-NAAG hydrolysis assay, membranes of COS cells transiently transfected with NAALAD-ase I", "parameters": "expressed in transfected cells; host or cells: COS cells, transient, pcDNA-3 (CMV promoter)", "experimental": "as §1, §2, §3"}}, "data": [{"smiles": "N[C@@H](Cn1oc(=O)[nH]c1=O)C(=O)O", "note": "[quisqualic acid]", "values": [{"measurement": "inhibition at 30 µM", "setting": "[1]; 30 μM, after 60 min (FIG. 9B)", "value": "> 50", "unit": "%"}, {"measurement": "IC50", "setting": "[1]; IC50, inhibition of NAALAD-ase II activity, 500 nM [3H]-NAAG, 37° C., 60 min, anion exchange column readout (FIG. 9C)", "value": 17, "unit": "µM"}, {"measurement": "IC50", "setting": "[1]; IC50 for NAALAD-ase II (discussion, rounded), recombinant preparation from COS cells, NAAG hydrolysis", "value": "~10", "unit": "µM"}, {"measurement": "inhibition of NAALAD-ase L activity against NAAG", "setting": "[2]", "value": "inhibited"}, {"measurement": "IC50", "setting": "[3]", "value": 0.91, "unit": "µM"}, {"measurement": "IC50", "setting": "[4]", "value": 1, "unit": "µM"}, {"measurement": "inhibition at 30 µM", "setting": "[5]; 30 μM, after 60 min (FIG. 9A)", "value": "> 50", "unit": "%"}, {"measurement": "IC50", "setting": "[5]; IC50, inhibition of NAALAD-ase I activity, 500 nM [3H]-NAAG, 37° C., 30 min, anion exchange column readout (FIG. 9C)", "value": 12, "unit": "µM"}, {"measurement": "IC50", "setting": "[5]; IC50 for NAALAD-ase I (discussion, rounded), recombinant preparation from COS cells, NAAG hydrolysis", "value": "~10", "unit": "µM"}]}]}
